Where “and” joins values, the source holds several entries; their conditions need not be identical. Equal entries are not always repeated. ± gives the expanded uncertainty stated by the source.
Legend:
[1] = 101.3 kPa, Liquid; for speed of sound: Pulse-echo method; for mass density: Vibrating tube method
[2] = xn = mol fraction of the nth substance listed; conditions: 101 kPa, Liquid; for speed of sound: Pulse-echo method; for mass density: Vibrating tube method

ClC(Cl)(Cl)Br [bromotrichloromethane]
[1]
Conditions | mass density [kg/m3] | speed of sound [m/s]
293.15 K | 2013.06 ± 1.2 | 917.1 ± 1.2
298.15 K | 2002.14 ± 1.2 | 903.6 ± 1.2
303.15 K | 1991.2 ± 1.2 | 890.2 ± 1.2
308.15 K | 1980.24 ± 1.2 | 876.8 ± 1.2
313.15 K | 1969.25 ± 1.2 | 863.6 ± 1.2

ClCBr [bromochloromethane]
[1]
Conditions | mass density [kg/m3] | speed of sound [m/s]
293.15 K | 1933.23 ± 1.1 | 1001.2 ± 1.2
298.15 K | 1921.71 ± 1.1 | 986.1 ± 1.2
303.15 K | 1910.15 ± 1.1 | 971 ± 1.2
308.15 K | 1898.51 ± 1.1 | 955.9 ± 1.2
313.15 K | 1886.82 ± 1.1 | 940.8 ± 1.2

CCCCCCC [heptane]
[1]
Conditions | mass density [kg/m3] | speed of sound
293.15 K | 683.84 ± 0.18 | 1152.6 ± 0.9 m/s and 1152.2 ± 0.9 m/s
298.15 K | 679.6 ± 0.18 | 1131 ± 0.9 m/s and 1130.9 ± 0.9 m/s
303.15 K | 675.33 ± 0.18 | 1109.6 ± 0.9 m/s and 1109.1 ± 0.9 m/s
308.15 K | 671.04 ± 0.18 | 1088.2 ± 0.9 m/s and 1088.1 ± 0.9 m/s
313.15 K | 666.71 ± 0.18 | 1067.1 ± 0.9 m/s and 1066.9 ± 0.9 m/s

ClC(Cl)(Cl)Br [bromotrichloromethane] + ClCBr
[2], x1 = 1
Conditions | mass density [kg/m3] | speed of sound [m/s]
293.15 K | 2013.06 ± 1.2 | 917.1 ± 1.2
298.15 K | 2002.14 ± 1.2 | 903.6 ± 1.2
303.15 K | 1991.2 ± 1.2 | 890.2 ± 1.2
308.15 K | 1980.24 ± 1.2 | 876.8 ± 1.2
313.15 K | 1969.25 ± 1.2 | 863.6 ± 1.2

CCCCCCC [heptane] + BrCBr
[2], x2 = 0
Conditions | mass density [kg/m3] | speed of sound [m/s]
293.15 K | 683.84 ± 0.18 | 1152.2 ± 0.9
298.15 K | 679.6 ± 0.18 | 1130.9 ± 0.9
303.15 K | 675.33 ± 0.18 | 1109.1 ± 0.9
308.15 K | 671.04 ± 0.18 | 1088.1 ± 0.9
313.15 K | 666.71 ± 0.18 | 1066.9 ± 0.9

BrCBr [dibromomethane] + ClC(Cl)(Cl)Br
[2], x2 = 0
Conditions | mass density [kg/m3] | speed of sound [m/s]
293.15 K | 2491.67 ± 1.8 | 961.8 ± 1.2
298.15 K | 2478.61 ± 1.8 | 949.2 ± 1.2
303.15 K | 2465.53 ± 1.8 | 936.6 ± 1.2
308.15 K | 2452.42 ± 1.8 | 924 ± 1.2
313.15 K | 2439.26 ± 1.8 | 911.4 ± 1.2

CCCCCCC [heptane] + ClC(Cl)(Cl)Br
[2], x2 = 0
Conditions | mass density [kg/m3] | speed of sound [m/s]
293.15 K | 683.84 ± 0.18 | 1152.6 ± 0.9
298.15 K | 679.6 ± 0.18 | 1131 ± 0.9
303.15 K | 675.33 ± 0.18 | 1109.6 ± 0.9
308.15 K | 671.04 ± 0.18 | 1088.2 ± 0.9
313.15 K | 666.71 ± 0.18 | 1067.1 ± 0.9

BrCBr [dibromomethane]
[1]
Conditions | mass density [kg/m3] | speed of sound [m/s]
293.15 K | 2491.67 ± 1.8 | 961.8 ± 1.2
298.15 K | 2478.61 ± 1.8 | 949.2 ± 1.2
303.15 K | 2465.53 ± 1.8 | 936.6 ± 1.2
308.15 K | 2452.42 ± 1.8 | 924 ± 1.2
313.15 K | 2439.26 ± 1.8 | 911.4 ± 1.2

Reference: the NIST ThermoML archive (doi:10.1021/je300775u)
